Assay [1] relates to western equine encephalitis virus replicon. Briefly: microbe, parasite or virus in culture. The format is cell-based.
The test system of assay [2] is Fort Morgan virus (FMV). The format is cell-based.
In assay [3] the test system is Fort Morgan virus (FMV). Description: microbe, parasite or virus in culture. The conditions noted are these: BE(2)-C, 48 h, read-out: cell viability of FMV-infected cells.
Assay [4] has as its system Fort Morgan virus (FMV).
The next assay has as its system Sindbis virus (SINV). Briefly: microbe, parasite or virus in culture. The conditions noted are these: BE(2)-C, 48 h, read-out: cell viability of SINV-infected cells.

Where only a bound is given, the exact number is not on record here.

This is an account of results in publication PMC2788236 (The Journal of infectious diseases, 2009).

Consider `O=C(NCc1ccccc1)C1CCN(C(=O)c2cc3sccc3n2Cc2ccc(F)cc2)CC1` [CCG32088], for which the “IC50, dose-response analysis (SAR, figure 4)” value in assay [1] is recorded as “submicromolar”.

On to `O=C(NCc1ccco1)C1CCN(C(=O)c2cc3sccc3n2Cc2ccc(F)cc2)CC1` [CCG32091, 1-({4-[(4-fluorophenyl)methyl]-4H-thieno[3,2-b]pyrrol-5-yl}-carbonyl)-N-(furan-2-ylmethyl)piperidine-4-carboxamide], for which, in the assay with Fort Morgan virus (FMV) [2], the “suppression of infectious FMV production” value was more than 90%. The viability at 12.5 µM in the assay with Fort Morgan virus (FMV) [3] was found to be 70%; in the assay on Sindbis virus (SINV), 50%. Also, the “concentration effectively suppressing FMV-induced cytopathic effect (as low as)” value with Fort Morgan virus (FMV) [4] is reported as not above 3 µmol/L. Moreover, the “selectivity index (CC50/IC50 ratio)” value in assay [1] was more than 20.

With `O=C(NCc1ccco1)C1CCN(C(=O)c2cc3sccc3n2Cc2ccc(Cl)cc2)CC1` [CCG32095], the “IC50, dose-response analysis (SAR, figure 4)” value in assay [1] was “submicromolar”.

For `COc1c(C)c2c(c(O)c1C/C=C(\C)CCC(=O)O)C(=O)OC2` [mycophenolic acid], in assay [1], the “suppression of fLUC expression” value is ~ 80%.

In the case of `NC(=O)c1ncn([C@@H]2O[C@H](CO)[C@@H](O)[C@H]2O)n1` [ribavirin], in assay [1], the “selectivity index (CC50/IC50 ratio)” value was determined as 19 and the “suppression of fLUC expression” value is listed as ~ 80%. Besides, the IC50 in assay [1] (Western equine encephalitis virus, BSR-T7/5, read-out: IC50, inhibition of fLUC activity) worked out at 16 µM.
